Experimental data reported in article PMC6979384, “Characterization of the plant homeodomain (PHD) reader family for their histone tail interactions” (Epigenetics & Chromatin, 2020).

Legend:
Test in all cases: Histone peptide microarray
Format in all cases: binding, human
AIRE (PP) = details: GST-tagged AIRE (PP); for Array Heatmap signal, AIRE (PP): sheet "Array Heatmap", arrays performed twice, total replicate number n = 4
Method in brief: (§1)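 Binding of recombinant GST-fused PHD readers (0.5 μM) is detected on an array of 293 histone peptides, modified singly or in combination. An optimized array protocol is followed, and each intensity is the average of quadruplicate measurements with standard deviation.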

BAZ2B = details: GST-tagged BAZ2B; for Array Heatmap signal, BAZ2B: sheet "Array Heatmap", arrays performed twice, total replicate number n = 4
Method in brief: as §1

BPTF (PB) = details: for Array Heatmap signal, BPTF (PB): sheet "Array Heatmap", GST-tagged BPTF (PB), arrays performed twice, total replicate number n = 4
Method in brief: as §1

CHD4 (PPCC) = details: for Array Heatmap signal, CHD4 (PPCC): sheet "Array Heatmap", GST-tagged CHD4 (PPCC), arrays performed twice, total replicate number n = 4
Method in brief: as §1

CHD5 (PCC) = details: for Array Heatmap signal, CHD5 (PCC): sheet "Array Heatmap", GST-tagged CHD5 (PCC), arrays performed twice, total replicate number n = 4
Method in brief: as §1

CHD5 (PPCC) = details: for Array Heatmap signal, CHD5 (PPCC): sheet "Array Heatmap", GST-tagged CHD5 (PPCC), arrays performed twice, total replicate number n = 4
Method in brief: as §1

DIDO1 = details: GST-tagged DIDO1; for Array Heatmap signal, DIDO1: sheet "Array Heatmap", arrays performed twice, total replicate number n = 4
Method in brief: as §1

DPF2 (PPC2W2) = details: for Array Heatmap signal, DPF2 (PPC2W2): sheet "Array Heatmap", GST-tagged DPF2 (PPC2W2), arrays performed twice, total replicate number n = 4
Method in brief: as §1

ING1 = details: GST-tagged ING1; for Array Heatmap signal, ING1: sheet "Array Heatmap", arrays performed twice, total replicate number n = 4
Method in brief: as §1

ING2 = details: GST-tagged ING2; for Array Heatmap signal, ING2: sheet "Array Heatmap", arrays performed twice, total replicate number n = 4
Method in brief: as §1

ING3 = details: GST-tagged ING3; for Array Heatmap signal, ING3: sheet "Array Heatmap", arrays performed twice, total replicate number n = 4
Method in brief: as §1

ING4 = details: GST-tagged ING4; for Array Heatmap signal, ING4: sheet "Array Heatmap", arrays performed twice, total replicate number n = 4
Method in brief: as §1

ING5 = details: GST-tagged ING5; for Array Heatmap signal, ING5: sheet "Array Heatmap", arrays performed twice, total replicate number n = 4
Method in brief: as §1

KDM4C (TTP) = details: for Array Heatmap signal, KDM4C (TTP): sheet "Array Heatmap", GST-tagged KDM4C (TTP), arrays performed twice, total replicate number n = 4
Method in brief: as §1

KDM5A (1) = details: GST-tagged KDM5A (1); for Array Heatmap signal, KDM5A (1): sheet "Array Heatmap", arrays performed twice, total replicate number n = 4
Method in brief: as §1

KDM5A (3) = details: GST-tagged KDM5A (3); for Array Heatmap signal, KDM5A (3): sheet "Array Heatmap", arrays performed twice, total replicate number n = 4
Method in brief: as §1

KDM5B (1) = details: GST-tagged KDM5B (1); for Array Heatmap signal, KDM5B (1): sheet "Array Heatmap", arrays performed twice, total replicate number n = 4
Method in brief: as §1

KDM5B (3) = details: GST-tagged KDM5B (3); for Array Heatmap signal, KDM5B (3): sheet "Array Heatmap", arrays performed twice, total replicate number n = 4
Method in brief: as §1

KDM7A = details: GST-tagged KDM7A; for Array Heatmap signal, KDM7A: sheet "Array Heatmap", arrays performed twice, total replicate number n = 4
Method in brief: as §1

MLL5 = details: GST-tagged MLL5; for Array Heatmap signal, MLL5: sheet "Array Heatmap", arrays performed twice, total replicate number n = 4
Method in brief: as §1

MORC3 (CW) = details: for Array Heatmap signal, MORC3 (CW): sheet "Array Heatmap", GST-tagged MORC3 (CW), arrays performed twice, total replicate number n = 4
Method in brief: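 Binding read as mean relative signal from 4 replicates; microarray held 293 synthetic histone peptides with single or combinatorial PTMs. Each GST-tagged PHD reader was applied at 0.5 μM using the optimized Petell protocol.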

PHF13 = details: GST-tagged PHF13; for Array Heatmap signal, PHF13: sheet "Array Heatmap", arrays performed twice, total replicate number n = 4
Method in brief: as §1

PHF21A = details: GST-tagged PHF21A; for Array Heatmap signal, PHF21A: sheet "Array Heatmap", arrays performed twice, total replicate number n = 4
Method in brief: as §1

PHF23 = details: GST-tagged PHF23; for Array Heatmap signal, PHF23: sheet "Array Heatmap", arrays performed twice, total replicate number n = 4
Method in brief: as §1

PHF2 = details: GST-tagged PHF2; for Array Heatmap signal, PHF2: sheet "Array Heatmap", arrays performed twice, total replicate number n = 4
Method in brief: as §1

PHF8 = details: GST-tagged PHF8; for Array Heatmap signal, PHF8: sheet "Array Heatmap", arrays performed twice, total replicate number n = 4
Method in brief: as §1

PHRF1 (RP) = details: GST-tagged PHRF1 (RP); for Array Heatmap signal, PHRF1 (RP): sheet "Array Heatmap", arrays performed twice, total replicate number n = 4
Method in brief: as §1

RAG2 = details: GST-tagged RAG2; for Array Heatmap signal, RAG2: sheet "Array Heatmap", arrays performed twice, total replicate number n = 4
Method in brief: as §1

SP140L = details: GST-tagged SP140L; for Array Heatmap signal, SP140L: sheet "Array Heatmap", arrays performed twice, total replicate number n = 4
Method in brief: as §1

TAF3 = details: GST-tagged TAF3; for Array Heatmap signal, TAF3: sheet "Array Heatmap", arrays performed twice, total replicate number n = 4
Method in brief: as §1

TRIM66 (PB) = details: for Array Heatmap signal, TRIM66 (PB): sheet "Array Heatmap", GST-tagged TRIM66 (PB), arrays performed twice, total replicate number n = 4
Method in brief: as §1

[1] = sheet Array Heatmap, each array performed twice, total n = 4

H3.3 30-49: H3.3 30-49
Array Heatmap signal, AIRE (PP) (AIRE (PP)): 0.4614
Array Heatmap signal, BAZ2B (BAZ2B): 0.4498
Array Heatmap signal, BPTF (PB) (BPTF (PB)): 0.3385
Array Heatmap signal, CHD4 (PPCC) (CHD4 (PPCC)): 0.5572
Array Heatmap signal, CHD5 (PCC) (CHD5 (PCC)): 0.7506
Array Heatmap signal, CHD5 (PPCC) (CHD5 (PPCC)): 0.5477
Array Heatmap signal, DIDO1 (DIDO1): 0.5964
Array Heatmap signal, DPF2 (PPC2W2) (DPF2 (PPC2W2)): 0.6135
Array Heatmap signal, ING1 (ING1): 0.4817
Array Heatmap signal, ING2 (ING2): 0.5868
Array Heatmap signal, ING3 (ING3): 0.4515
Array Heatmap signal, ING4 (ING4): 0.4627
Array Heatmap signal, ING5 (ING5): 0.3551
Array Heatmap signal, KDM4C (TTP) (KDM4C (TTP)): 0.523
Array Heatmap signal, KDM5A (1) (KDM5A (1)): 0.4724
Array Heatmap signal, KDM5A (3) (KDM5A (3)): 0.3975
Array Heatmap signal, KDM5B (1) (KDM5B (1)): 0.6846
Array Heatmap signal, KDM5B (3) (KDM5B (3)): 0.4643
Array Heatmap signal, KDM7A (KDM7A): 0.4094
Array Heatmap signal, MLL5 (MLL5): 0.5124
Array Heatmap signal, MORC3 (CW) (MORC3 (CW)): 0.3401
Array Heatmap signal, PHF13 (PHF13): 0.586
Array Heatmap signal, PHF21A (PHF21A): 0.447
Array Heatmap signal, PHF23 (PHF23): 0.5238
Array Heatmap signal, PHF2 (PHF2): 0.404
Array Heatmap signal, PHF8 (PHF8): 0.3443
Array Heatmap signal, PHRF1 (RP) (PHRF1 (RP)): 0.4134
Array Heatmap signal, RAG2 (RAG2): 0.2343
Array Heatmap signal, SP140L (SP140L): 0.3561
Array Heatmap signal, TAF3 (TAF3): 0.2689
Array Heatmap signal, TRIM66 (PB) (TRIM66 (PB)): 0.5248

H3R2me2a + K4me3 + K9ac + S10p + K14ac + K18ac: H3 1-20
Array Heatmap signal (histone peptide microarray) (AIRE (PP); [1]): 0.4047
Array Heatmap signal (histone peptide microarray) (BAZ2B; [1]): 0.4937
Array Heatmap signal (histone peptide microarray) (BPTF (PB); GST-tagged BPTF (PB = PHD + Bromodomain), sheet Array Heatmap, each array performed twice, total n = 4): 0.3887
Array Heatmap signal (histone peptide microarray) (CHD4 (PPCC); GST-tagged CHD4 (PPCC = Dual PHD + Dual Chromodomain), sheet Array Heatmap, each array performed twice, total n = 4): 0.6237
Array Heatmap signal (histone peptide microarray) (CHD5 (PCC); GST-tagged CHD5 (PCC = PHD + Dual Chromodomain), sheet Array Heatmap, each array performed twice, total n = 4): 0.7925
Array Heatmap signal (histone peptide microarray) (CHD5 (PPCC); GST-tagged CHD5 (PPCC = Dual PHD + Dual Chromodomain), sheet Array Heatmap, each array performed twice, total n = 4): 0.548
Array Heatmap signal (histone peptide microarray) (DIDO1; [1]): 0.8949
Array Heatmap signal (histone peptide microarray) (DPF2 (PPC2W2); GST-tagged DPF2 (PPC2W2 = Dual PHD + C2W2-type Zn-finger), sheet Array Heatmap, each array performed twice, total n = 4): 0.6777
Array Heatmap signal (histone peptide microarray) (ING1; [1]): 0.5459
Array Heatmap signal (histone peptide microarray) (ING2; [1]): 0.6564
Array Heatmap signal (histone peptide microarray) (ING3; [1]): 0.4975
Array Heatmap signal (histone peptide microarray) (ING4; [1]): 0.4604
Array Heatmap signal (histone peptide microarray) (ING5; [1]): 0.3501
Array Heatmap signal (histone peptide microarray) (KDM4C (TTP); GST-tagged KDM4C (TTP = Tandem Tudor domain + PHD), sheet Array Heatmap, each array performed twice, total n = 4): 0.4723
Array Heatmap signal (histone peptide microarray) (KDM5A (1); [1]): 0.4602
Array Heatmap signal (histone peptide microarray) (KDM5A (3); [1]): 0.601
Array Heatmap signal (histone peptide microarray) (KDM5B (1); [1]): 0.6513
Array Heatmap signal (histone peptide microarray) (KDM5B (3); [1]): 0.4836
Array Heatmap signal (histone peptide microarray) (KDM7A; [1]): 0.3601
Array Heatmap signal (histone peptide microarray) (MLL5; [1]): 0.625
Array Heatmap signal (histone peptide microarray) (MORC3 (CW); GST-tagged MORC3 (CW = CW-type Zn-finger), sheet Array Heatmap, each array performed twice, total n = 4): 0.5411
Array Heatmap signal (histone peptide microarray) (PHF13; [1]): 0.6389
Array Heatmap signal (histone peptide microarray) (PHF21A; [1]): 0.4526
Array Heatmap signal (histone peptide microarray) (PHF23; [1]): 0.5457
Array Heatmap signal (histone peptide microarray) (PHF2; [1]): 0.7095
Array Heatmap signal (histone peptide microarray) (PHF8; [1]): 0.4417
Array Heatmap signal (histone peptide microarray) (PHRF1 (RP); [1]): 0.447
Array Heatmap signal (histone peptide microarray) (RAG2; [1]): 0.3777
Array Heatmap signal (histone peptide microarray) (SP140L; [1]): 0.3224
Array Heatmap signal (histone peptide microarray) (TAF3; [1]): 0.4085
Array Heatmap signal (histone peptide microarray) (TRIM66 (PB); GST-tagged TRIM66 (PB = PHD + Bromodomain), sheet Array Heatmap, each array performed twice, total n = 4): 0.5406

H3 (1-20) N-ac: H3 1-20
Array Heatmap signal, AIRE (PP) (AIRE (PP)): 0.5035
Array Heatmap signal, BAZ2B (BAZ2B): 0.4663
Array Heatmap signal, BPTF (PB) (BPTF (PB)): 0.3531
Array Heatmap signal, CHD4 (PPCC) (CHD4 (PPCC)): 0.5805
Array Heatmap signal, CHD5 (PCC) (CHD5 (PCC)): 0.8196
Array Heatmap signal, CHD5 (PPCC) (CHD5 (PPCC)): 0.5483
Array Heatmap signal, DIDO1 (DIDO1): 0.6386
Array Heatmap signal, DPF2 (PPC2W2) (DPF2 (PPC2W2)): 0.6951
Array Heatmap signal, ING1 (ING1): 0.5284
Array Heatmap signal, ING2 (ING2): 0.6126
Array Heatmap signal, ING3 (ING3): 0.4681
Array Heatmap signal, ING4 (ING4): 0.4519
Array Heatmap signal, ING5 (ING5): 0.3522
Array Heatmap signal, KDM4C (TTP) (KDM4C (TTP)): 0.4656
Array Heatmap signal, KDM5A (1) (KDM5A (1)): 0.4705
Array Heatmap signal, KDM5A (3) (KDM5A (3)): 0.5353
Array Heatmap signal, KDM5B (1) (KDM5B (1)): 0.6502
Array Heatmap signal, KDM5B (3) (KDM5B (3)): 0.5329
Array Heatmap signal, KDM7A (KDM7A): 0.3283
Array Heatmap signal, MLL5 (MLL5): 0.5714
Array Heatmap signal, MORC3 (CW) (MORC3 (CW)): 0.4955
Array Heatmap signal, PHF13 (PHF13): 0.6234
Array Heatmap signal, PHF21A (PHF21A): 0.4724
Array Heatmap signal, PHF23 (PHF23): 0.532
Array Heatmap signal, PHF2 (PHF2): 0.4904
Array Heatmap signal, PHF8 (PHF8): 0.365
Array Heatmap signal, PHRF1 (RP) (PHRF1 (RP)): 0.6182
Array Heatmap signal, RAG2 (RAG2): 0.259
Array Heatmap signal, SP140L (SP140L): 0.3813
Array Heatmap signal, TAF3 (TAF3): 0.3122
Array Heatmap signal, TRIM66 (PB) (TRIM66 (PB)): 0.7386
